The structures appear in SMILES notation. ≈ marks a conversion by molar mass, not a printed value.

For data set [1], the target named is T1, UDP-N-acetylenolpyruvoylglucosamine reductase (Staphylococcus aureus, UniProt P61431).
T1 sequence (P61431 whole entry): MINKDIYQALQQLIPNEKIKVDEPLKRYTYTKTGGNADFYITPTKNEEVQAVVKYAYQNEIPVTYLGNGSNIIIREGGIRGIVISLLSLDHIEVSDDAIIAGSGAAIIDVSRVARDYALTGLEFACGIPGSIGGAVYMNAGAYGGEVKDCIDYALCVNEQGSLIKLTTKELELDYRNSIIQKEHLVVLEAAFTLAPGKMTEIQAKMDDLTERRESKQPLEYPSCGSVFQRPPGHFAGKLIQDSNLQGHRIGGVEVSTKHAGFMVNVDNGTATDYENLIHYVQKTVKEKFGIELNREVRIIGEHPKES
Briefly: In vitro inhibitory activity against Staphylococcus aureus UDP-N-acetylmuramate dehydrogenase.

Another data set concerns Bacteria. Description: Minimum inhibitory activity against gram negative bacteria. It counts as functional.
For data set [2], the system named is Enterococcus faecalis. Description: Minimum inhibitory activity against Enterococcus faecalis GC 4555 (ATCC). The format is functional.
For data set [3], the target named is T2, UDP-N-acetylmuramoylalanine--D-glutamate ligase (Staphylococcus aureus, UniProt P0A091).
T2 sequence (P0A091 whole entry): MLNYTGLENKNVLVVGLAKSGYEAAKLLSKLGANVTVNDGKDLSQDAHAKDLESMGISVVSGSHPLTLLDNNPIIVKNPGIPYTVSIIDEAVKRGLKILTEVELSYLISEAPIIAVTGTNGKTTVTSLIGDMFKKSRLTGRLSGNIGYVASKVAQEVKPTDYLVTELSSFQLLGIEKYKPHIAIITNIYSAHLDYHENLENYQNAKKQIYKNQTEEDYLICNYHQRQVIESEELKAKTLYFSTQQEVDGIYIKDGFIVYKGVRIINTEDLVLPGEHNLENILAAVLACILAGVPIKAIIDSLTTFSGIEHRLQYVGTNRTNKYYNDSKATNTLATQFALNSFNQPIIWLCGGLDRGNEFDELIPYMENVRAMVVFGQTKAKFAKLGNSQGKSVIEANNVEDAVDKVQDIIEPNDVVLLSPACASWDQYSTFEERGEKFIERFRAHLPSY
Briefly: In vitro inhibitory activity against Staphylococcus aureus UDP-N-acetylmuramoyl-L-alanyl-D-glutamate synthetase.

The test system of data set [4] is Escherichia coli. Description: Minimum inhibitory activity against Escherichia coli GC 4559. It counts as functional.
The target in data set [5] is T3, UDP-N-acetylmuramate--L-alanine ligase (Staphylococcus aureus, UniProt O31211).
T3 sequence (O31211 whole entry): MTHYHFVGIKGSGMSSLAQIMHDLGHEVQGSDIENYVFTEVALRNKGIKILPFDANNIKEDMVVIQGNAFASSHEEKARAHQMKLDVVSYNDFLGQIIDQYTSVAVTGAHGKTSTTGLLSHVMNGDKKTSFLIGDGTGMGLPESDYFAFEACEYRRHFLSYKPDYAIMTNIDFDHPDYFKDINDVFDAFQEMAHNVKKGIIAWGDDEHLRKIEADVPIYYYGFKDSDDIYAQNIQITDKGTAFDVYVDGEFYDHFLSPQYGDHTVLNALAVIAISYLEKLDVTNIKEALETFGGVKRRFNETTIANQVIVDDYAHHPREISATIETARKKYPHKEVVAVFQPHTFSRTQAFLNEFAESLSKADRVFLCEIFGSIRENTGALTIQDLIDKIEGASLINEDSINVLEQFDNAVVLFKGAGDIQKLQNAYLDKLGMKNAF
Briefly: In vitro inhibitory activity against Staphylococcus aureus UDP-N-acetylmuramoyl-L-alanine synthetase.

Data set [6] relates to Escherichia coli. Briefly: Minimum inhibitory activity against Escherichia coli GC 4560. It counts as functional.
Data set [7] relates to Staphylococcus aureus. Briefly: Minimum inhibitory activity against Staphylococcus aureus GC 1131 (MRSA). It counts as functional.
A short description of data set [8]: Minimum inhibitory activity in presence of 4% bovine serum albumin against Streptococcus pneumoniae GC1894 (PRSP). It counts as functional.
The subject of data set [9] is Staphylococcus aureus. Description: Minimum inhibitory activity against Staphylococcus aureus GC 4543 (MSSA). It counts as functional.
Data set [10] is described as follows: Partition coefficient (logP). The format is physicochemical. The following applies: octanol/water.
The nature of data set [11]: Minimum inhibitory activity against MSCNS GC 646. It counts as functional. The following applies: Staphylococcus.
Data set [12] in a line: Minimum inhibitory activity against Streptococcus pneumoniae GC1894 (PRSP). It counts as functional.
Data set [13] concerns Enterococcus faecalis. Briefly: Minimum inhibitory activity against Enterococcus faecalis GC 2242 (VRE). It counts as functional.
For data set [14], the system named is Staphylococcus aureus. Briefly: Minimum inhibitory activity against Staphylococcus aureus GC 2216 (ATCC). It counts as functional.

With `O=[N+]([O-])c1ccc(-n2nc3c(c2O)CSCC3)cc1`, the 50% inhibitory concentration (IC50) in data set [1] was over 90.2 µM. Further, the minimum inhibitory concentration (MIC) in the data set with Bacteria was over 128 µg/mL.

Compound `Oc1c2c(nn1-c1ccc(Cl)c(Cl)c1)CSC2` registered a half-maximal inhibitory concentration (IC50) in data set [1] of over 87.1 µM. Moreover, the MIC with Bacteria stood at 32 µg/mL (≈ 111 µM).

In the case of `Oc1c2c(nn1-c1ccc(Cl)c(Cl)c1)CCS2`, the MIC in the data set with Enterococcus faecalis [2] was 128 µg/mL (≈ 446 µM); in the data set on Escherichia coli [4] it was over 128 µg/mL; with Escherichia coli [6], 128 µg/mL (≈ 446 µM); against Staphylococcus aureus [7] it was 32 µg/mL (≈ 111 µM); in data set [8], over 128 µg/mL; with Staphylococcus aureus [9], 8 µg/mL (≈ 27.9 µM). In addition, the MIC in data set [11] worked out at 16 µg/mL (≈ 55.7 µM); in [12] it was 4 µg/mL (≈ 13.9 µM); in the data set on Enterococcus faecalis [13], 64 µg/mL (≈ 223 µM); with Staphylococcus aureus [14], 8 µg/mL (≈ 27.9 µM). For the same compound, the IC50 in [3] is 48.8 µM; in data set [1], 38.3 µM; in [5], 24.4 µM. Besides, the lipophilicity (logP) in data set [10] worked out at 3.62.

For `Oc1c2c(nn1-c1ccc(Cl)c(Cl)c1)CCCC2`, in [1], the IC50 is over 88.3 µM. Further, the MIC in the data set on Bacteria is over 128 µg/mL.

For `Oc1c2c(nn1-c1ccc(Cl)cc1)COC2`, in data set [1], the IC50 is over 106 µM. Further, the minimum inhibitory concentration (MIC) in the data set with Bacteria was over 128 µg/mL.

As to `Oc1c2c(nn1-c1ccc(Cl)cc1)CCS2`, the MIC against Enterococcus faecalis [2] is 16 µg/mL (≈ 63.3 µM); with Escherichia coli [4], over 128 µg/mL; in the data set with Escherichia coli [6] it was over 128 µg/mL; with Staphylococcus aureus [7], 16 µg/mL (≈ 63.3 µM); in data set [8] it was over 128 µg/mL; against Staphylococcus aureus [9], 2 µg/mL (≈ 7.91 µM). Further, the minimal inhibitory concentration (MIC) is 4 µg/mL (≈ 15.8 µM) in [11], 1 µg/mL (≈ 3.96 µM) in data set [12], 16 µg/mL (≈ 63.3 µM) in the data set with Enterococcus faecalis [13] and 2 µg/mL (≈ 7.91 µM) against Staphylococcus aureus [14]. The IC50 was 45.5 µM in [3], 28.1 µM in [1] and 40 µM in data set [5]. This compound returned a lipophilicity (logP) in [10] of 3.06.

In data set [1], `[O-][S+]1CCc2nn(-c3ccc(Cl)c(Cl)c3)c(O)c21` (stereo not given) gave an IC50 of 66 µM. Further, the MIC against Bacteria is over 128 µg/mL. Moreover, the logP in [10] is 2.01.

With `Oc1c2c(nn1-c1ccc(Cl)cc1)CSC2`, the IC50 in [1] is 831 µM. Moreover, the MIC in the data set on Bacteria is over 128 µg/mL.

For `N#Cc1ccc(-n2nc3c(c2O)SCC3)cc1`, the MIC was 8 µg/mL (≈ 32.9 µM) in the data set with Enterococcus faecalis [2]; over 128 µg/mL against Escherichia coli [4]; 64 µg/mL (≈ 263 µM) in the data set with Escherichia coli [6]; 32 µg/mL (≈ 132 µM) against Staphylococcus aureus [7]; over 128 µg/mL in data set [8]; 16 µg/mL (≈ 65.8 µM) in the data set with Staphylococcus aureus [9]. The MIC in data set [11] is 4 µg/mL (≈ 16.4 µM); in data set [12], 4 µg/mL (≈ 16.4 µM); in the data set with Enterococcus faecalis [13], 8 µg/mL (≈ 32.9 µM); against Staphylococcus aureus [14] it was 8 µg/mL (≈ 32.9 µM). For the same compound, the results for the 50% inhibitory concentration (IC50) in data set [3], in data set [1] and in [5] were 49.3 µM, over 103 µM and over 103 µM, respectively. In data set [10], this compound yielded a logP of 2.53.

Consider `NC(=O)c1cccc(-n2nc3c(c2O)SCC3)c1`, for which the minimum inhibitory concentration (MIC) is 64 µg/mL (≈ 245 µM) against Enterococcus faecalis [2]; over 128 µg/mL in the data set on Escherichia coli [4]; 128 µg/mL (≈ 490 µM) with Escherichia coli [6]; 128 µg/mL (≈ 490 µM) with Staphylococcus aureus [7]; over 128 µg/mL in [8]; 64 µg/mL (≈ 245 µM) with Staphylococcus aureus [9]. Further, the minimum inhibitory concentration (MIC) in data set [11] was over 128 µg/mL; in [12] it was 8 µg/mL (≈ 30.6 µM); with Enterococcus faecalis [13], 32 µg/mL (≈ 122 µM); with Staphylococcus aureus [14] it was 128 µg/mL (≈ 490 µM). For the same compound, the IC50 in data set [3] was 47.8 µM; in [1], over 95.7 µM; in data set [5], over 95.7 µM. In data set [10], this compound came in with a logP of 1.41.

Consider `Oc1c2c(nn1-c1ccc(C(F)(F)F)cc1)CCS2`, for which the MIC against Enterococcus faecalis [2] was 16 µg/mL (≈ 55.9 µM); with Escherichia coli [4], over 128 µg/mL; in the data set on Escherichia coli [6] it was 128 µg/mL (≈ 447 µM); in the data set with Staphylococcus aureus [7] it was 8 µg/mL (≈ 27.9 µM); in data set [8], over 128 µg/mL; against Staphylococcus aureus [9], 1 µg/mL (≈ 3.49 µM). The minimal inhibitory concentration (MIC) in data set [11] was 4 µg/mL (≈ 14 µM); in data set [12], 0.5 µg/mL (≈ 1.75 µM); in the data set on Enterococcus faecalis [13] it was 8 µg/mL (≈ 27.9 µM); against Staphylococcus aureus [14] it was 2 µg/mL (≈ 6.99 µM). Further, the IC50 in data set [3] is 43 µM; in data set [1], 38.4 µM; in [5], over 87.3 µM.

Regarding `CC1Cc2nn(-c3ccc(Cl)cc3)c(O)c2S1` (stereo not given), the MIC in the data set on Enterococcus faecalis [2] was 32 µg/mL (≈ 120 µM); against Escherichia coli [4], over 128 µg/mL; against Escherichia coli [6], over 128 µg/mL; with Staphylococcus aureus [7] it was 16 µg/mL (≈ 60 µM); in [8], over 128 µg/mL; against Staphylococcus aureus [9], 16 µg/mL (≈ 60 µM). For the same compound, the MIC in data set [11] turned out to be 16 µg/mL (≈ 60 µM); in data set [12], 4 µg/mL (≈ 15 µM); against Enterococcus faecalis [13], 2 µg/mL (≈ 7.5 µM); in the data set on Staphylococcus aureus [14], 32 µg/mL (≈ 120 µM). Moreover, the IC50 in [3] is 64.1 µM; in data set [1], over 93.7 µM; in [5] it was over 93.7 µM.

The record behind these values is ChEMBL document CHEMBL1136141, “2-Phenyl-5,6-dihydro-2H-thieno[3,2-c]pyrazol-3-ol derivatives as new inhibitors of bacterial cell wall biosynthesis” (Bioorg Med Chem Lett, 2003).
